Results on 22 molecules are retold here after patent US10239832B2, “N-(1-hydroxy-3-(pyrrolidinyl)propan-2-yl)pyrrolidine-3-carboxamide derivatives as glucosylceramide synthase inhibitors” (BIOMARIN PHARMACEUTICAL INC., priority 2013, dated 2019).

For this assay, the target named is T1, GCS (Canis lupus familiaris, UniProt A0A8I3MXG6).
T1 construct: endogenous in cells; host or cells: MDCK (Madin-Darby canine kidney) cells, whole-cell lysate
T1 sequence (A0A8I3MXG6 1-394): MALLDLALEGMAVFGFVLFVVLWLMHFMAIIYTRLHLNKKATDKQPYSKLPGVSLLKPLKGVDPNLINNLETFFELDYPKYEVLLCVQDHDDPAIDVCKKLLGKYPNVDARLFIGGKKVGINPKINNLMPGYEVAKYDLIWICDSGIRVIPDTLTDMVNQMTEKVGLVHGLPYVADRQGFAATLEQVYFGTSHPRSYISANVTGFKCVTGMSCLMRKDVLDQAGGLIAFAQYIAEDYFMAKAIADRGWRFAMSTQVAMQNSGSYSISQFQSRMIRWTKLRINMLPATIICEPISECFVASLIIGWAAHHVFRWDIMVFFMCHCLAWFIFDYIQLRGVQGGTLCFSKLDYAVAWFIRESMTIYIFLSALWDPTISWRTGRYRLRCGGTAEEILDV
Description: GCS enzymatic assay (MDCK cell lysate, NBD-ceramide to glucosylceramide, LC/MS). It is filed as biochemical, canine. To be noted: Table 2, the table does not say which of the assays; for IC50: class symbols A, B, C, read-out: Data Range (IC50 values); for Data Range (% inhibition): class symbols D, E, F, NA (not active). In outline:
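Dog MDCK cell lysate served as enzyme source, with NBD-ceramide turned over to glucosylceramide and 0.1% DMSO as mock control. The reaction was stopped with acetonitrile. Both lipids were quantified by LC/MS/MS in ESI positive MRM mode against a tolbutamide internal standard, giving IC50 or percent inhibition.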

Take `CC(C)(O)COc1ccc([C@@H](O)[C@@H](CN2CCCC2)NC(=O)[C@@H]2CCN(c3ccc4cc(F)ccc4c3)C2)cc1Cl` [Compound 102, (R)-N-((1R,2R)-1-(3-chloro-4-(2-hydroxy-2-methylpropoxy)phenyl)-1-hydroxy-3-(pyrrolidin-1-yl)propan-2-yl)-1-(6-fluoronaphthalen-2-yl)pyrrolidine-3-carboxamide]: the IC50 is 1 to 30 nM.

Turning to `O=C(N[C@H](CN1CCCC1)[C@H](O)c1ccc(OC2CC2)c(Cl)c1)[C@@H]1CCN(c2ccc(Cl)c(Oc3ccccn3)c2)C1` [Compound 103, (R)-1-(4-chloro-3-(pyridin-2-yloxy)phenyl)-N-((1R,2R)-1-(3-chloro-4-cyclopropoxyphenyl)-1-hydroxy-3-(pyrrolidin-1-yl)propan-2-yl)pyrrolidine-3-carboxamide], the IC50 lay in the range of 1 to 30 nM. For the molecule `O=C(N[C@H](CN1CCCC1)[C@H](O)c1cc(F)c2c(c1)OCCO2)[C@@H]1CCN(c2ccc3cc(Cl)ccc3n2)C1` [Compound 104, (R)-1-(6-chloroquinolin-2-yl)-N-((1R,2R)-1-(8-fluoro-2,3-dihydrobenzo[b][1,4]dioxin-6-yl)-1-hydroxy-3-(pyrrolidin-1-yl)propan-2-yl)pyrrolidine-3-carboxamide], the IC50 was in the range of 1 to 30 nM.

In the case of `O=C(N[C@H](CN1CCCC1)[C@H](O)c1cc(F)c2c(c1)OCCO2)[C@@H]1CCN(c2ccc(Cl)c(Oc3ccccn3)c2)C1` [Compound 105, (R)-1-(4-chloro-3-(pyridin-2-yloxy)phenyl)-N-((1R,2R)-1-(8-fluoro-2,3-dihydrobenzo[b][1,4]dioxin-6-yl)-1-hydroxy-3-(pyrrolidin-1-yl)propan-2-yl)pyrrolidine-3-carboxamide], the IC50 is 1 to 30 nM. In the case of `O=C(N[C@H](CN1CCCC1)[C@H](O)c1ccc2c(c1)OCCO2)[C@@H]1CCN(c2ccc3cccnc3c2)C1` [Compound 106, (R)-N-((1R,2R)-1-(2,3-dihydrobenzo[b][1,4]dioxin-6-yl)-1-hydroxy-3-(pyrrolidin-1-yl)propan-2-yl)-1-(quinolin-7-yl)pyrrolidine-3-carboxamide], the “Data Range (% inhibition)” value was “D (75-100%)”. On to `CC(C)(O)COc1ccc([C@@H](O)[C@@H](CN2CCCC2)NC(=O)[C@@H]2CCN(c3ccc4ccccc4c3)C2)cc1Cl` [Compound 107, (R)-N-((1R,2R)-1-(3-chloro-4-(2-hydroxy-2-methylpropoxy)phenyl)-1-hydroxy-3-(pyrrolidin-1-yl)propan-2-yl)-1-(naphthalen-2-yl)pyrrolidine-3-carboxamide], for which the IC50 lay within 1 to 30 nM. On to `O=C(N[C@H](CN1CCC1)[C@H](O)c1cc(F)c2c(c1)OCCO2)[C@@H]1CCN(c2ccc3cc(Cl)sc3c2)C1` [Compound 108, (R)-N-((1R,2R)-3-(azetidin-1-yl)-1-(8-fluoro-2,3-dihydrobenzo[b][1,4]dioxin-6-yl)-1-hydroxypropan-2-yl)-1-(2-chlorobenzo[b]thiophen-6-yl)pyrrolidine-3-carboxamide], for which the IC50 was in the range of 1 to 30 nM. Same read-out and setting: for `O=C(N[C@H](CN1CCCC1)[C@H](O)c1ccc(OC2CC2)c(Cl)c1)[C@@H]1CCN(c2ccc3cc(Cl)sc3c2)C1` [Compound 109, (R)-N-((1R,2R)-1-(3-chloro-4-cyclopropoxyphenyl)-1-hydroxy-3-(pyrrolidin-1-yl)propan-2-yl)-1-(2-chlorobenzo[b]thiophen-6-yl)pyrrolidine-3-carboxamide] the value was 30 to 100 nM; for `O=C(N[C@H](CN1CCCC1)[C@H](O)c1ccc2c(c1)OCCO2)[C@@H]1CCN(c2ccc(Cl)c(Oc3ccccn3)c2)C1` [Compound 110, (R)-1-(4-chloro-3-(pyridin-2-yloxy)phenyl)-N-((1R,2R)-1-(2,3-dihydrobenzo[b][1,4]dioxin-6-yl)-1-hydroxy-3-(pyrrolidin-1-yl)propan-2-yl)pyrrolidine-3-carboxamide], 1 to 30 nM.

As for `O=C(N[C@H](CN1CCCC1)[C@H](O)c1cc(F)c2c(c1)OCCO2)[C@@H]1CCN(c2ccc3cc(Cl)sc3c2)C1` [Compound 111, (R)-1-(2-chlorobenzo[b]thiophen-6-yl)-N-((1R,2R)-1-(8-fluoro-2,3-dihydrobenzo[b][1,4]dioxin-6-yl)-1-hydroxy-3-(pyrrolidin-1-yl)propan-2-yl)pyrrolidine-3-carboxamide], the IC50 was in the range of 1 to 30 nM. Same read-out and setting: for `O=C(N[C@H](CN1CCCC1)[C@H](O)c1ccc(OC2CC2)c(Cl)c1)[C@@H]1CCN(c2cccc(Oc3ccc(Cl)cc3)n2)C1` [Compound 112, (R)-N-((1R,2R)-1-(3-chloro-4-cyclopropoxyphenyl)-1-hydroxy-3-(pyrrolidin-1-yl)propan-2-yl)-1-(6-(4-chlorophenoxy)pyridin-2-yl)pyrrolidine-3-carboxamide] the value was 1 to 30 nM; for `O=C(N[C@H](CN1CCCC1)[C@H](O)c1ccc2c(c1)OCCO2)[C@@H]1CCN(c2cccc(Oc3ccc(Cl)cc3)n2)C1` [Compound 113, (R)-1-(6-(4-chlorophenoxy)pyridin-2-yl)-N((1R,2R)-1-(2,3-dihydrobenzo[b][1,4]dioxin-6-yl)-1-hydroxy-3-(pyrrolidin-1-yl)propan-2-yl)pyrrolidine-3-carboxamide], 1 to 30 nM; for `O=C(N[C@H](CN1CCCC1)[C@H](O)c1cc(F)c2c(c1)OCCO2)[C@@H]1CCN(c2cccc(Oc3ccc(Cl)cc3)n2)C1` [Compound 114, (R)-1-(6-(4-chlorophenoxy)pyridin-2-yl)-N((1R,2R)-1-(8-fluoro-2,3-dihydrobenzo[b][1,4]dioxin-6-yl)-1-hydroxy-3-(pyrrolidin-1-yl)propan-2-yl)pyrrolidine-3-carboxamide], 1 to 30 nM. The same measure, in the same setting: the figure for `O=C(N[C@H](CN1CCCC1)[C@H](O)c1ccc(OC2CC2)c(Cl)c1)[C@@H]1CCN(c2cccc(Oc3ccc(F)cc3)n2)C1` [Compound 115, (R)-N-((1R,2R)-1-(3-chloro-4-cyclopropoxyphenyl)-1-hydroxy-3-(pyrrolidin-1-yl)propan-2-yl)-1-(6-(4-fluorophenoxy)pyridin-2-yl)pyrrolidine-3-carboxamide] is 1 to 30 nM.

As to `O=C(N[C@H](CN1CCCC1)[C@H](O)c1cc(F)c2c(c1)OCCO2)[C@@H]1CCN(c2cccc(Oc3ccc(F)cc3)n2)C1` [Compound 116, (R)-N-((1R,2R)-1-(8-fluoro-2,3-dihydrobenzo[b][1,4]dioxin-6-yl)-1-hydroxy-3-(pyrrolidin-1-yl)propan-2-yl)-1-(6-(4-fluorophenoxy)pyridin-2-yl)pyrrolidine-3-carboxamide], the half-inhibitory concentration (IC50) was in the range of 1 to 30 nM. Same read-out and setting: for `O=C(N[C@H](CN1CCCC1)[C@H](O)c1ccc(OC2COC2)c(Cl)c1)[C@@H]1CCN(c2ccc3cc(F)ccc3c2)C1` [Compound 117, (R)-N-((1R,2R)-1-(3-chloro-4-(oxetan-3-yloxy)phenyl)-1-hydroxy-3-(pyrrolidin-1-yl)propan-2-yl)-1-(6-fluoronaphthalen-2-yl)pyrrolidine-3-carboxamide] the value was 1 to 30 nM; for `O=C(N[C@H](CN1CCCC1)[C@H](O)c1ccc(OC2CC2)c(Cl)c1)[C@@H]1CCN(c2cc(Oc3ccccn3)ccc2Cl)C1` [Compound 118, (R)-N-((1R,2R)-1-(3-chloro-4-cyclopropoxyphenyl)-1-hydroxy-3-(pyrrolidin-1-yl)propan-2-yl)-1-(2-chloro-5-(pyridin-2-yloxy)phenyl)pyrrolidine-3-carboxamide], 1 to 30 nM; for `O=C(N[C@H](CN1CCCC1)[C@H](O)c1ccc2c(c1)OCCO2)[C@@H]1CCN(c2cccc(Oc3ccc(F)cc3)n2)C1` [Compound 119, (R)-N-((1R,2R)-1-(2,3-dihydrobenzo[b][1,4]dioxin-6-yl)-1-hydroxy-3-(pyrrolidin-1-yl)propan-2-yl)-1-(6-(4-fluorophenoxy)pyridin-2-yl)pyrrolidine-3-carboxamide], 1 to 30 nM.

`O=C(N[C@H](CN1CCCC1)[C@H](O)c1cc(F)c2c(c1)OCCO2)[C@@H]1CCN(C(=O)c2ccccc2)C1` [Compound 120, (R)-1-benzoyl-N-((1R,2R)-1-(8-fluoro-2,3-dihydrobenzo[b][1,4]dioxin-6-yl)-1-hydroxy-3-(pyrrolidin-1-yl)propan-2-yl)pyrrolidine-3-carboxamide]: the “Data Range (% inhibition)” value was “F (1-49% (or less than 50%))”. On the same count and under the same terms, for `O=C(N[C@H](CN1CCCC1)[C@H](O)c1ccc2c(c1)OCCO2)[C@@H]1CCN(C(=O)c2ccccc2)C1` [Compound 121, (R)-1-benzoyl-N-((1R,2R)-1-(2,3-dihydrobenzo[b][1,4]dioxin-6-yl)-1-hydroxy-3-(pyrrolidin-1-yl)propan-2-yl)pyrrolidine-3-carboxamide] the value was “NA (not active—a negative value was generated for % inhibition)”.

Consider `O=C(N[C@H](CN1CCC1)[C@H](O)c1ccc(OC2COC2)c(Cl)c1)[C@@H]1CCN(c2ccc3cc(F)ccc3c2)C1` [Compound 122, (R)-N-((1R,2R)-3-(azetidin-1-yl)-1-(3-chloro-4-(oxetan-3-yloxy)phenyl)-1-hydroxypropan-2-yl)-1-(6-fluoronaphthalen-2-yl)pyrrolidine-3-carboxamide], for which the IC50 is 1 to 30 nM. Same read-out and setting: the figure for `O=C(N[C@H](CN1CCCC1)[C@H](O)c1ccc2c(c1)OCCO2)[C@@H]1CCN(c2cccc(-c3ccc(F)cc3)n2)C1` [Compound 123, (R)-N-((1R,2R)-1-(2,3-dihydrobenzo[b][1,4]dioxin-6-yl)-1-hydroxy-3-(pyrrolidin-1-yl)propan-2-yl)-1-(6-(4-fluorophenyl)pyridin-2-yl)pyrrolidine-3-carboxamide] is 1 to 30 nM.

Usually IC50 stands for the point on the concentration scale where inhibition reaches its midpoint.
